Experimental findings from ChEMBL document CHEMBL1130994, “3-trifluoromethylcarbacephems: synthesis of broad spectrum antibacterial compounds” (1998) are described below.

The test system of experiment [1] is Acinetobacter. Nature of the experiment: Compound was evaluated for inhibitory activity against AC12 Acinetobacter. Format: functional.
Experiment [2] relates to Citrobacter. Nature of the experiment: Compound was evaluated for inhibitory activity against CF17 Citrobacter. It counts as functional.
Experiment [3] concerns Enterobacter cloacae. Nature of the experiment: Compound was evaluated for inhibitory activity against 265a Enterobacter cloacae beta-lactamase. It counts as functional.
The subject of experiment [4] is Enterobacter cloacae. Nature of the experiment: Compound was evaluated for inhibitory activity against EB5 Enterobacter cloacae. It counts as functional.
The subject of experiment [5] is Escherichia coli. Nature of the experiment: Compound was evaluated for inhibitory activity against EC14 Escherichia coli sensitive. Format: functional.
The subject of experiment [6] is Escherichia coli. Nature of the experiment: Compound was evaluated for inhibitory activity against TEM Escherichia coli beta-lactamase. Format: functional.
The subject of experiment [7] is Klebsiella aerogenes. Nature of the experiment: Compound was evaluated for inhibitory activity against EB17 Enterobacter aerogenes. It counts as functional.
The test system of a further experiment is Enterococcus faecalis. Nature of the experiment: Compound was evaluated for inhibitory activity against 2041 Enterococcus faecalis Gp.D streptococcus penicillin susceptible. Format: functional.
The test system of experiment [8] is Klebsiella aerogenes. Nature of the experiment: Compound was evaluated for inhibitory activity against C32 Enterobacter aerogenes. It counts as functional.
Experiment [9] has as its system Haemophilus influenzae. Nature of the experiment: Compound was evaluated for inhibitory activity against 76 Haemophilus influenzae beta-lactamase. Format: functional.
The test system of experiment [10] is Haemophilus influenzae. Nature of the experiment: Compound was evaluated for inhibitory activity against C.L Haemophilus influenzae ampicillin sensitive. It counts as functional.
The subject of experiment [11] is Klebsiella pneumoniae. Nature of the experiment: Compound was evaluated for inhibitory activity against KAE Klebsiella pneumoniae. Format: functional.
The subject of experiment [12] is Klebsiella pneumoniae. Nature of the experiment: Compound was evaluated for inhibitory activity against X26 Klebsiella pneumoniae. It counts as functional.
Experiment [13] deals with Morganella morganii. Nature of the experiment: Compound was evaluated for inhibitory activity against PR15 Morganella morganii. Format: functional.
In experiment [14] the test system is Providencia rettgeri. Nature of the experiment: Compound was evaluated for inhibitory activity against C24 Providencia rettgeri. Format: functional.
Experiment [15] has as its system Providencia stuartii. Nature of the experiment: Compound was evaluated for inhibitory activity against PR33 Providencia stuartii. It counts as functional.
The test system of experiment [16] is Salmonella. Nature of the experiment: Compound was evaluated for inhibitory activity against X514 Salmonella. Format: functional.
Experiment [17] deals with Serratia. Nature of the experiment: Compound was evaluated for inhibitory activity against SE3 Serratia. Format: functional.
In experiment [18] the test system is Serratia. Nature of the experiment: Compound was evaluated for inhibitory activity against X99 Serratia. It counts as functional.
The subject of experiment [19] is Streptococcus pyogenes. Nature of the experiment: Compound was evaluated for inhibitory activity against C203 Streptococcus pyogenes Gp.A; No growth. Format: functional, organism-based.
Experiment [20] deals with Staphylococcus aureus. Nature of the experiment: Compound was evaluated for inhibitory activity against S13E Staphylococcus aureus methicillin resistant penicillin resistant macrolide sensitive (PBP2a producer). It counts as functional.
The test system of experiment [21] is Staphylococcus aureus. Nature of the experiment: Compound was evaluated for inhibitory activity against X1.1 Staphylococcus aureus penicillin sensitive. It counts as functional.
Experiment [22] deals with Staphylococcus aureus. Nature of the experiment: Compound was evaluated for inhibitory activity against X400S Staphylococcus aureus methicillin resistant and macrolide resistant. Format: functional.
Experiment [23] concerns Streptococcus pneumoniae. Nature of the experiment: Compound was evaluated for inhibitory activity against Park S Streptococcus pneumoniae; No growth. Format: functional, organism-based.
The test system of experiment [24] is Acinetobacter. Nature of the experiment: Compound was evaluated for minimum inhibitory concentration against AC12 Acinetobacter. Format: functional.
Experiment [25] concerns Citrobacter. Nature of the experiment: Compound was evaluated for minimum inhibitory concentration against CF17 Citrobacter. Format: functional.
The test system of experiment [26] is Morganella morganii. Nature of the experiment: Compound was evaluated for minimum inhibitory concentration against PR15 Morganella morganii. It counts as functional.
For experiment [27], the system named is Providencia rettgeri. Nature of the experiment: Compound was evaluated for minimum inhibitory concentration against C24 Providencia rettgeri. It counts as functional.
The subject of experiment [28] is Salmonella. Nature of the experiment: Compound was evaluated for minimum inhibitory concentration against X514 Salmonella. Format: functional.
In experiment [29] the test system is Serratia. Nature of the experiment: Compound was evaluated for minimum inhibitory concentration against SE3 Serratia. Format: functional.
In experiment [30] the test system is Serratia. Nature of the experiment: Compound was evaluated for minimum inhibitory concentration against X99 Serratia. It counts as functional.
For experiment [31], the system named is Streptococcus pyogenes. Nature of the experiment: Compound was evaluated for inhibitory activity against C203 Streptococcus pyogenes Gp.A. Format: functional.
Experiment [32] deals with Streptococcus pneumoniae. Nature of the experiment: Compound was evaluated for inhibitory activity against Park S Streptococcus pneumoniae. It counts as functional.
Experiment [33] relates to Providencia stuartii. Nature of the experiment: Compound was evaluated for minimum inhibitory concentration against PR33 Providencia stuartii. Format: functional.

Each structure is given as a SMILES string. ≈ marks a conversion by molar mass, not a printed value.

Regarding `Nc1ccc([C@@H](N)C(=O)N[C@@H]2C(=O)N3C(C(=O)O)=C(C(F)(F)F)CC[C@H]23)cc1`, the MIC with Acinetobacter [1] came to 64 µM (≈ 25.5 µg/mL); with Citrobacter [2], 16 µM (≈ 6.37 µg/mL); in the experiment on Enterobacter cloacae [3], 32 µM (≈ 12.7 µg/mL); in the experiment on Enterobacter cloacae [4] it was 16 µM (≈ 6.37 µg/mL); in the experiment with Escherichia coli [5], 0.5 µM (≈ 0.199 µg/mL); in the experiment with Escherichia coli [6], 1 µM (≈ 0.398 µg/mL). The MIC worked out at 4 µM (≈ 1.59 µg/mL) against Klebsiella aerogenes [7]; 16 µM (≈ 6.37 µg/mL) with Enterococcus faecalis; 8 µM (≈ 3.19 µg/mL) against Klebsiella aerogenes [8]; 1 µM (≈ 0.398 µg/mL) against Haemophilus influenzae [9]; 1 µM (≈ 0.398 µg/mL) against Haemophilus influenzae [10]; 16 µM (≈ 6.37 µg/mL) against Klebsiella pneumoniae [11]. The MIC against Klebsiella pneumoniae [12] was determined as 0.5 µM (≈ 0.199 µg/mL); against Morganella morganii [13] it was 8 µM (≈ 3.19 µg/mL); in the experiment with Providencia rettgeri [14], 16 µM (≈ 6.37 µg/mL); in the experiment on Providencia stuartii [15], 32 µM (≈ 12.7 µg/mL); in the experiment on Salmonella [16], 0.25 µM (≈ 0.0996 µg/mL); with Serratia [17], 32 µM (≈ 12.7 µg/mL). For the same molecule, the MIC in the experiment with Serratia [18] was 16 µM (≈ 6.37 µg/mL); with Streptococcus pyogenes [19], “No growth”; against Staphylococcus aureus [20], 64 µM (≈ 25.5 µg/mL); in the experiment on Staphylococcus aureus [21], 2 µM (≈ 0.797 µg/mL); with Staphylococcus aureus [22], 64 µM (≈ 25.5 µg/mL); in the experiment with Streptococcus pneumoniae [23] it was “No growth”.
Regarding `Cc1ccc([C@@H](N)C(=O)N[C@@H]2C(=O)N3C(C(=O)O)=C(C(F)(F)F)CC[C@H]23)cc1`, the MIC is 16 µM (≈ 6.36 µg/mL) in the experiment with Acinetobacter [24]; 16 µM (≈ 6.36 µg/mL) against Citrobacter [25]; 32 µM (≈ 12.7 µg/mL) in the experiment on Enterobacter cloacae [3]; 16 µM (≈ 6.36 µg/mL) in the experiment with Enterobacter cloacae [4]; 2 µM (≈ 0.795 µg/mL) with Escherichia coli [5]; 4 µM (≈ 1.59 µg/mL) in the experiment on Escherichia coli [6]. Also, the MIC in the experiment with Klebsiella aerogenes [7] worked out at 8 µM (≈ 3.18 µg/mL); against Enterococcus faecalis, 8 µM (≈ 3.18 µg/mL); with Klebsiella aerogenes [8] it was 8 µM (≈ 3.18 µg/mL); with Haemophilus influenzae [9], 4 µM (≈ 1.59 µg/mL); in the experiment on Haemophilus influenzae [10] it was 2 µM (≈ 0.795 µg/mL); in the experiment on Klebsiella pneumoniae [11], 8 µM (≈ 3.18 µg/mL). In addition, the MIC is 0.5 µM (≈ 0.199 µg/mL) in the experiment with Klebsiella pneumoniae [12]; 8 µM (≈ 3.18 µg/mL) against Morganella morganii [26]; 16 µM (≈ 6.36 µg/mL) in the experiment with Providencia rettgeri [27]; 4 µM (≈ 1.59 µg/mL) in the experiment on Salmonella [28]; 64 µM (≈ 25.4 µg/mL) against Serratia [29]; 16 µM (≈ 6.36 µg/mL) against Serratia [30]. Also, the MIC is 0.06 µM (≈ 0.0238 µg/mL) in the experiment with Streptococcus pyogenes [31]; 4 µM (≈ 1.59 µg/mL) in the experiment with Staphylococcus aureus [20]; 1 µM (≈ 0.397 µg/mL) with Staphylococcus aureus [21]; 4 µM (≈ 1.59 µg/mL) in the experiment on Staphylococcus aureus [22]; 0.13 µM (≈ 0.0517 µg/mL) in the experiment with Streptococcus pneumoniae [32]; 16 µM (≈ 6.36 µg/mL) against Providencia stuartii [33].
Regarding `N[C@@H](C(=O)N[C@@H]1C(=O)N2C(C(=O)O)=C(C(F)(F)F)CC[C@H]12)c1ccc(F)cc1`, the MIC was 64 µM (≈ 25.7 µg/mL) in the experiment with Acinetobacter [1]; 8 µM (≈ 3.21 µg/mL) against Citrobacter [2]; 8 µM (≈ 3.21 µg/mL) against Enterobacter cloacae [3]; 8 µM (≈ 3.21 µg/mL) in the experiment on Enterobacter cloacae [4]; 1 µM (≈ 0.401 µg/mL) with Escherichia coli [5]; 1 µM (≈ 0.401 µg/mL) with Escherichia coli [6]. The MIC in the experiment with Klebsiella aerogenes [7] worked out at 8 µM (≈ 3.21 µg/mL); against Enterococcus faecalis, 32 µM (≈ 12.8 µg/mL); with Klebsiella aerogenes [8] it was 8 µM (≈ 3.21 µg/mL); with Haemophilus influenzae [9] it was 1 µM (≈ 0.401 µg/mL); in the experiment with Haemophilus influenzae [10] it was 0.5 µM (≈ 0.201 µg/mL); against Klebsiella pneumoniae [11], 8 µM (≈ 3.21 µg/mL). For the same molecule, the MIC in the experiment on Klebsiella pneumoniae [12] was found to be 0.5 µM (≈ 0.201 µg/mL); with Morganella morganii [13] it was 16 µM (≈ 6.42 µg/mL); in the experiment with Providencia rettgeri [14], 8 µM (≈ 3.21 µg/mL); with Providencia stuartii [15], 8 µM (≈ 3.21 µg/mL); with Salmonella [28], 0.5 µM (≈ 0.201 µg/mL); in the experiment on Serratia [17] it was 32 µM (≈ 12.8 µg/mL). Also, the MIC in the experiment on Serratia [18] stood at 16 µM (≈ 6.42 µg/mL); in the experiment on Streptococcus pyogenes [31], 0.06 µM (≈ 0.0241 µg/mL); against Staphylococcus aureus [20], 32 µM (≈ 12.8 µg/mL); against Staphylococcus aureus [21], 1 µM (≈ 0.401 µg/mL); in the experiment with Staphylococcus aureus [22], 64 µM (≈ 25.7 µg/mL); in the experiment on Streptococcus pneumoniae [32], 0.25 µM (≈ 0.1 µg/mL).
